Test results as given in ChEMBL document CHEMBL4152326 (2018).

Tests used:
Assay type in all cases: functional
[1] = test system: Pseudomonas aeruginosa; experiment: Antimicrobial activity against Pseudomonas aeruginosa SR24 in presence of human apo-transferrin by broth microdilution method
[2] = test system: Pseudomonas aeruginosa; experiment: Antimicrobial activity against AmpC overproducing Pseudomonas aeruginosa SR24-12 in presence of human apo-transferrin by broth microdilution method
[3] = test system: Pseudomonas aeruginosa; experiment: Antimicrobial activity against IMP-1 producing Pseudomonas aeruginosa SR27001 in presence of human apo-transferrin by broth microdilution method
[4] = test system: Pseudomonas aeruginosa; experiment: Antimicrobial activity against VIM-2 producing Pseudomonas aeruginosa SBRKM-28 in presence of human apo-transferrin by broth microdilution method
[5] = test system: Pseudomonas aeruginosa; experiment: Antimicrobial activity against IMP-1 producing Pseudomonas aeruginosa SR27060 in presence of human apo-transferrin by broth microdilution method
[6] = test system: Pseudomonas aeruginosa; experiment: Antimicrobial activity against Pseudomonas aeruginosa 27060deltaR1 harboring deletion of R1 plasmid in presence of human apo-transferrin by broth microdilution method
[7] = test system: Stenotrophomonas maltophilia; experiment: Antimicrobial activity against L-1 producing Stenotrophomonas maltophilia SR21970 in presence of human apo-transferrin by broth microdilution method
[8] = test system: Acinetobacter baumannii; experiment: Antimicrobial activity against OXA-23/OXA-58 producing Acinetobacter baumannii SR27323 in presence of human apo-transferrin by broth microdilution method
[9] = test system: Klebsiella pneumoniae; experiment: Antimicrobial activity against KPC-2 producing Klebsiella pneumoniae ATCC BAA-1705 in presence of human apo-transferrin by broth microdilution method
[10] = test system: Escherichia coli; experiment: Antimicrobial activity against SHV-4 producing Escherichia coli ATCC BAA-200 in presence of human apo-transferrin by broth microdilution method

| SMILES | MIC [1] [µg/mL] | MIC [2] [µg/mL] | MIC [3] [µg/mL] | MIC [4] [µg/mL] | MIC [5] [µg/mL] | MIC [6] [µg/mL] | MIC [7] [µg/mL] | MIC [8] [µg/mL] | MIC [9] [µg/mL] | MIC [10] [µg/mL] |
| --- | --- | --- | --- | --- | --- | --- | --- | --- | --- | --- |
| CC(C)(O/N=C(\C(=O)N[C@@H]1C(=O)N2C(C(=O)[O-])=C(C[N+]3(CCNC(=O)c4ccc(O)c(O)c4Cl)CCCCC3)CS[C@H]12)c1csc(N)n1)C(=O)O | 0.25 | 0.25 | 1 | 0.125 | 2 | 1 | 0.25 | 1 | 0.031 | 0.5 |
| C[C@@H](O)[C@H]1C(=O)N2C(C(=O)O)=C(S[C@@H]3CN[C@H](C(=O)N(C)C)C3)[C@H](C)[C@H]12 [MEROPENEM] | ≤ 0.063 | 0.125 |  |  |  |  | > 64 |  |  | ≤ 0.063 |
| CC(C)(O/N=C(\C(=O)N[C@@H]1C(=O)N2C(C(=O)[O-])=C(C[N+]3(Cc4nnc(-c5ccc(O)c(O)c5Cl)o4)CCCC3)CS[C@H]12)c1csc(N)n1)C(=O)O | 0.5 | 0.5 | 2 | 0.125 | 2 | 0.5 | 0.5 |  |  |  |
| CC(C)(O/N=C(\C(=O)N[C@@H]1C(=O)N2C(C(=O)[O-])=C(C[N+]3(C)CCN(C(=O)c4ccc(O)c(O)c4Cl)CC3)CS[C@H]12)c1csc(N)n1)C(=O)O | 0.125 | 0.125 | 4 |  | 8 | 0.25 | 1 | 1 | 0.125 | 32 |
| CC(C)(O/N=C(\C(=O)N[C@@H]1C(=O)N2C(C(=O)[O-])=C(C[N+]3(CCNC(=O)c4[nH]cc(O)c(=O)c4Cl)CCCC3)CS[C@H]12)c1csc(N)n1)C(=O)O | 2 | 24 |  | 4 | > 32 | 8 | 4 | 32 | 2 | 16 |
| CC(C)(O/N=C(\C(=O)N[C@@H]1C(=O)N2C(C(=O)[O-])=C(C[N+]34CCC(CC3)N(C(=O)c3ccc(O)c(O)c3Cl)CC4)CS[C@H]12)c1csc(N)n1)C(=O)O | 0.25 | 0.25 | 1 | 0.125 | 4 | 1 | 0.125 |  |  |  |
| CC(C)(O/N=C(\C(=O)N[C@@H]1C(=O)N2C(C(=O)[O-])=C(C[N+](C)(C)C3CCN(C(=O)c4ccc(O)c(O)c4Cl)CC3)CS[C@H]12)c1csc(N)n1)C(=O)O | 0.5 | 1 | 4 | 0.5 | 4 | 1 | 1 | 2 | 0.125 | 2 |
| CC(C)(O/N=C(\C(=O)N[C@@H]1C(=O)N2C(C(=O)[O-])=C(C[N+]3(CCCNC(=O)c4ccc(O)c(O)c4Cl)CCCC3)CS[C@H]12)c1csc(N)n1)C(=O)O | 0.5 | 0.5 | 1 | 0.125 | 1 | 0.25 | 0.125 |  |  |  |
| CC(C)(O/N=C(\C(=O)N[C@@H]1C(=O)N2C(C(=O)[O-])=C(C[N+]3(CCN)CCCC3)CS[C@H]12)c1csc(N)n1)C(=O)O | 2 | 8 | 32 |  | 16 | 4 | > 32 | 8 | 8 | 16 |
| NCC[N+]1(CC2=C(C(=O)[O-])N3C(=O)[C@@H](NC(=O)/C(=N\O[C@@H](CNC(=O)c4ccc(O)c(O)c4Cl)C(=O)O)c4csc(N)n4)[C@H]3SC2)CCCC1 | 0.125 | 0.063 | 0.5 |  | 0.125 | 0.063 | 16 | 0.5 | 0.125 | 8 |
| CC(C)(O/N=C(\C(=O)N[C@@H]1C(=O)N2C(C(=O)[O-])=C(C[N+]3(CCNC(=O)c4ccc(=O)n(O)c4)CCCC3)CS[C@H]12)c1csc(N)n1)C(=O)O | 2 | 2 | 16 |  | 8 | 4 | 4 | 32 | 2 | 8 |
| CC(C)(O/N=C(\C(=O)N[C@@H]1C(=O)N2C(C(=O)[O-])=C(C[n+]3cccc4c3CCCN4C(=O)c3ccc(O)c(O)c3Cl)CS[C@H]12)c1csc(N)n1)C(=O)O |  |  | 4 | 0.125 | 4 |  | 0.5 |  |  |  |
| COc1c(C(=O)NCC[N+]2(CC3=C(C(=O)[O-])N4C(=O)[C@@H](NC(=O)/C(=N\OC(C)(C)C(=O)O)c5csc(N)n5)[C@H]4SC3)CCCC2)ccc(O)c1O | 0.125 | 0.125 | 4 |  | 4 | 2 | 2 | 1 | 0.25 | 8 |
| CC(C)(O/N=C(\C(=O)N[C@@H]1C(=O)N2C(C(=O)[O-])=C(C[n+]3ccc(-c4ccc(O)c(O)c4Cl)cc3)CS[C@H]12)c1csc(N)n1)C(=O)O (stereo in doubt) |  |  | > 64 | 0.25 | 16 |  | 1 |  |  |  |
| CO/N=C(\C(=O)N[C@@H]1C(=O)N2C(C(=O)[O-])=C(C[N+]3(CCNC(=O)c4ccc(O)c(O)c4Cl)CCCC3)CS[C@H]12)c1csc(N)n1 |  |  | 4 | 0.5 | 32 |  | 2 |  |  |  |
| C[C@@H](C[N+]1(CC2=C(C(=O)[O-])N3C(=O)[C@@H](NC(=O)/C(=N\OC(C)(C)C(=O)O)c4csc(N)n4)[C@H]3SC2)CCCC1)NC(=O)c1ccc(O)c(O)c1Cl | 0.25 | 0.25 | 1 | 0.125 | 2 | 0.25 | 0.25 |  |  |  |
| CN(CC[N+]1(CC2=C(C(=O)[O-])N3C(=O)[C@@H](NC(=O)/C(=N\OC(C)(C)C(=O)O)c4csc(N)n4)[C@H]3SC2)CCCC1)C(=O)c1ccc(O)c(O)c1Cl | 0.5 | 0.5 | 1 | 0.125 | 1 | 0.5 | 0.25 |  |  |  |
| CC(C)(O/N=C(\C(=O)N[C@@H]1C(=O)N2C(C(=O)[O-])=C(C[N+]3(C)C[C@H]4C[C@@H]3CN4C(=O)c3ccc(O)c(O)c3Cl)CS[C@H]12)c1csc(N)n1)C(=O)O (stereo not given in full) | 0.25 | 0.5 | 2 | 0.25 | 4 | 2 | 0.5 |  |  |  |
| NCC[N+]1(CC2=C(C(=O)[O-])N3C(=O)[C@@H](NC(=O)/C(=N\OC[C@H](NC(=O)c4ccc(O)c(O)c4Cl)C(=O)O)c4csc(N)n4)[C@H]3SC2)CCCC1 | 0.125 | 0.25 | 0.25 |  | 0.125 | 0.063 | > 32 | 4 | 0.25 | > 32 |
| CC(C)(O/N=C(\C(=O)N[C@@H]1C(=O)N2C(C(=O)[O-])=C(C[N+]3(CCNC(=O)Nc4ccc(O)c(O)c4Cl)CCCC3)CS[C@H]12)c1csc(N)n1)C(=O)O | 1 | 1 | 4 | 0.5 | 8 | 2 | 4 |  |  |  |
| CC(C)(O/N=C(\C(=O)N[C@@H]1C(=O)N2C(C(=O)[O-])=C(C[N+]3(CCNC(=O)c4ccc(O)c(O)c4Cl)CCCC3)CS[C@H]12)c1nsc(N)n1)C(=O)O | 0.25 | 0.25 | 1 | 0.25 | 1 | 0.25 | 0.25 |  |  |  |
| C[N+]1(CC2=C(C(=O)[O-])N3C(=O)[C@@H](NC(=O)/C(=N\OC[C@H](NC(=O)c4ccc(O)c(O)c4Cl)C(=O)O)c4csc(N)n4)[C@H]3SC2)CCCC1 | 0.125 | 1 | 4 | 0.125 | 4 | 2 | 8 |  |  |  |
| CC(C)(O/N=C(\C(=O)N[C@@H]1C(=O)N2C(C(=O)[O-])=C(C[n+]3cc4cc(NC(=O)c5ccc(O)c(O)c5Cl)ccn4c3)CS[C@H]12)c1csc(N)n1)C(=O)O | 0.25 | 2 | > 32 |  | > 32 | 4 | > 32 | 0.5 | 0.25 | 4 |
| CC(C)(O/N=C(\C(=O)N[C@@H]1C(=O)N2C(C(=O)[O-])=C(C[N@@+]3(C)C[C@H]4CN(C(=O)c5ccc(O)c(O)c5Cl)C[C@H]4C3)CS[C@H]12)c1csc(N)n1)C(=O)O | 0.25 | 0.25 | 4 | 0.125 | 4 | 0.5 | 0.5 |  |  |  |
| C[N+]1(CC2=C(C(=O)[O-])N3C(=O)[C@@H](NC(=O)/C(=N\O[C@@H](CNC(=O)c4ccc(O)c(O)c4Cl)C(=O)O)c4csc(N)n4)[C@H]3SC2)CCCC1 | 0.125 | 0.5 | 8 |  | 4 | 0.5 | 16 | 1 | 0.25 | > 32 |
| COc1c(O)ccc(C(=O)NCC[N+]2(CC3=C(C(=O)[O-])N4C(=O)[C@@H](NC(=O)/C(=N\OC(C)(C)C(=O)O)c5csc(N)n5)[C@H]4SC3)CCCC2)c1Cl | 2 | 8 | 32 | 16 |  |  | 28 | > 32 | 4 | 16 |
